Test results taken from patent EP4692094A1 (Beijing Konruns Pharmaceutical Co., Ltd., priority 2023, dated 2024).

assay: Assay for plasma protein binding rate (equilibrium dialysis), dog plasma; format: in vitro ADME; conditions: dialysis 6 h at 37 °C, read-out: Dog (Fu%)
Experimental: 1.1 Preparation of compounds: The compounds prepared in the examples were each dissolved in dimethylsulfoxide to give solutions at a concentration of 10 mmol/L. • 1) The example compounds were each diluted from 10 mmol/L stock solution to 0.2 mmol/L, i.e., 1 µL of the compound was added to 49 µL of DMSO; • 2) 3 µL of 0.2 mmol/L test compounds were added to 597 µL of blood plasma, and the mixtures were vortexed at 1000 rpm for 2 min; • 3) 50 µL of the plasma containing the drug in 2) was taken, 50 µL of PBS was added, and 300 µL of methanol internal standard* was added to serve as a sample T0; • 4) 120 µL of the plasma containing the drug in 2) was taken and added to one side of an HTD device membrane, and 120 µL of PBS was added to the other side of the membrane; a breathable film was covered, and the plasma and the residual sample in 2) were balanced at 37 °C (100 rpm and 5% CO2) for 6 h; • 5) 50 µL of the dialyzed plasma side sample was taken, 50 µL of PBS was added, and 300 µL of methanol internal standard* was added to serve as a sample P; • 6) 50 µL of the dialyzed PBS side sample was taken, 50 µL of blank plasma was added, and 300 µL of methanol internal standard* was added to serve as a sample B; • 7) 50 µL of the plasma containing the drug in 2) was taken, 50 µL of PBS was added, and 300 µL of methanol internal standard* was added to serve as a sample T6; • 8) All samples were vortexed, mixed homogeneously, and then centrifuged at 3220 g for 40 min at 4 °C; • 9) 100 µL of the supernatant and 100 µL of purified water were mixed homogenously for liquid chromatography-mass spectrometry.
An internal standard method was used, and the plasma protein binding rate, recovery rate, and residual percentage were calculated by using Excel according to the ratio of the peak area of the sample to the peak area of the internal standard. Free rate(%) = (RatioB)/(RatioP) × 100% [formula] Binding rate(%) = 100%−Free rate% [formula] Recovery rate(%) = (RatioB + RatioP)/(RatioT0) × 100% [formula] Remaining percentage(%) = (RatioT6)/(RatioT0) × 100% [formula]
RatioB: a ratio of the peak area of the test substance on the PBS side to the peak area of the internal standard; RatioP: a ratio of the peak area of the test substance on the plasma side to the peak area of the internal standard; RatioT6: a ratio of the peak area of the sample after incubation with the test substance for 6 h to the peak area of the internal standard; RatioT0: a ratio of the peak area of the sample after incubation with the test substance for 0 h to the peak area of the internal standard. Table 8. Plasma protein binding rate (Fu%) data for various species of example compounds

**Q.** With COc1cc2c(cc1S(=O)(=O)Nc1noc3cc(Cn4cccn4)nc(OC)c13)CCCC2 [Example 2, N-(6-((1H-Pyrazol-1-yl)methyl)-4-methoxyisoxazolo[4,5-c]pyridin-3-yl)-3-methoxy-5,6,7,8-tetrahydronaphthalene-2-sulfonamide] as the compound, how does the fraction unbound at 6 h, 1 µM read?
**A.** 0.0013

**Q.** For COc1ccc2c(c1S(=O)(=O)Nc1noc3cc(Cn4cccn4)nc(OC)c13)OCC2 [Example 9, N-(6-((1H-Pyrazol-1-yl)methyl)-4-methoxyisoxazolo[4,5-c]pyridin-3-yl)-6-methoxy-2,3-dihydrobenzofuran-7-sulfonamide], which fraction unbound at 6 h, 1 µM is on record?
**A.** 0.025

**Q.** With COc1ccc2ccoc2c1S(=O)(=O)Nc1noc2cc(Cn3cccn3)nc(OC)c12 [Example 10, N-(6-((1H-Pyrazol-1-yl)methyl)-4-methoxyisoxazolo[4,5-c]pyridin-3-yl)-6-methoxybenzofuran-7-sulfonamide] as the compound, how does the fraction unbound at 6 h, 1 µM read?
**A.** 0.0145

**Q.** Which fraction unbound at 6 h, 1 µM does the source give for COc1cc2c(cc1S(=O)(=O)Nc1noc3cc(Cn4cccn4)nc(OC)c13)OCC2 [Example 59, N-(6-((1H-Pyrazol-1-yl)methyl)-4-methoxyisoxazolo[4,5-c]pyridin-3-yl)-5-methoxy-2,3-dihydrobenzofuran-6-sulfonamide] here?
**A.** 0.0143

**Q.** Which fraction unbound at 6 h, 1 µM does the source give for COc1cc2c(cc1S(=O)(=O)Nc1noc3cc(Cn4cccn4)nc(OC)c13)CCCO2 [Example 76, N-(6-((1H-Pyrazol-1-yl)methyl)-4-methoxyisoxazolo[4,5-c]pyridin-3-yl)-7-methoxy-3,4-dihydro-1H-benzopyran-6-sulfonamide] here?
**A.** 0.0065
